Experimental data taken from patent US6107288A, “Antiviral nucleoside combination” (priority 1991, dated 2000).
“And” between values parts separate entries of the source, which are not always exact repeats. Identical values can stand only once. Like-named read-outs stand apart in the source and are kept apart here.

Tested on: HIV
Format: cell-based
Experimental: Combinations according to the invention were tested for anti-HIV activity in an HIV-infected MT4 cell assay as described in Averett, D. R., J. Virol. Methods, 23, 263-276 (1989). The cells were exposed to HIV for one hour prior to addition of antiviral component(s). Components were tested in serial 2.5-fold dilutions. After five days of incubation at 37° C., the cell number was determined. Inhibition of HIV-induced cytopathic effect was calculated, and synergism was determined by FIC plots as described by Elion, Singer, and Hitchings, J. Biol. Chem. 208, 477 (1954).
The fractional inhibitor concentrations (FIC) of zidovudine and cis-1-(2-(hydroxymethyl)-1,3-oxathiolan-5-yl)-5-fluorocytosine were calculated according to the method of Elion et al., supra (Table 1).

In the case of Nc1nc(=O)n([C@@H]2CS[C@H](CO)O2)cc1F (relative stereo) [Compound 1, cis1-(2-(hydroxymethyl)-1,3-oxathiolan-5-yl)-5-fluorocytosine], the “Fractional Inhibitor Concentration (FIC)” value is reported as 0.48 and 0.38 and 0.31 and 0.26.
Cc1cn([C@H]2C[C@H](N=[N+]=[N-])[C@@H](CO)O2)c(=O)[nH]c1=O [Zidovudine, 3'-azido-3'-deoxythymidine] was tested, and the “Fractional Inhibitor Concentration (FIC)” value (70% inhibition, combination of zidovudine 0.004 with Compound 1 2.5) was 0.018, the “Fractional Inhibitor Concentration (FIC)” value (70% inhibition, combination of zidovudine 0.01 with Compound 1 2.0) was 0.045 and the “Fractional Inhibitor Concentration (FIC)” value (70% inhibition, combination of zidovudine 0.0256 with Compound 1 1.6) was 0.12. The “Fractional Inhibitor Concentration (FIC)” value (70% inhibition, combination of zidovudine 0.06 with Compound 1 1.4) was 0.27.
